The source made the active and inactive calls. No cut-off for these calls is given here.
Legend:
Format in all cases: cell-based
Toll-like receptor 4 [1] = molecular target: T1, Toll-like receptor 4 (Homo sapiens, UniProt O00206); assay: Agonist activity at human recombinant TLR4 expressed in HEK293 cells by SEAP reporter assay
Toll-like receptor 4 [2] = molecular target: T1, Toll-like receptor 4; assay: Intrinsic activity at human recombinant TLR4 expressed in HEK293 cells by SEAP reporter assay relative to LPS
Toll-like receptor 4 [3] = molecular target: T1, Toll-like receptor 4; assay: Agonist activity at human recombinant TLR4 expressed in HEK293 cells at 25 uM by SEAP reporter assay
Toll-like receptor 4 [4] = molecular target: T1, Toll-like receptor 4; assay: Agonist activity at human recombinant TLR4 expressed in HEK293 cells at 333 uM by SEAP reporter assay
Toll-like receptor 4 [5] = molecular target: T1, Toll-like receptor 4; assay: Agonist activity at human recombinant TLR4 expressed in HEK293 cells at 60 uM by SEAP reporter assay
Toll-like receptor 4 [6] = molecular target: T1, Toll-like receptor 4; assay: Agonist activity at human recombinant TLR4 expressed in HEK293 cells at 30 uM by SEAP reporter assay
Toll-like receptor 4 [7] = molecular target: T1, Toll-like receptor 4; assay: Agonist activity at human recombinant TLR4 expressed in HEK293 cells at 71.5 uM by SEAP reporter assay
Toll-like receptor 4 [8] = molecular target: T1, Toll-like receptor 4; assay: Agonist activity at human recombinant TLR4 expressed in HEK293 cells at 300 uM by SEAP reporter assay

T1 sequence (O00206 whole entry): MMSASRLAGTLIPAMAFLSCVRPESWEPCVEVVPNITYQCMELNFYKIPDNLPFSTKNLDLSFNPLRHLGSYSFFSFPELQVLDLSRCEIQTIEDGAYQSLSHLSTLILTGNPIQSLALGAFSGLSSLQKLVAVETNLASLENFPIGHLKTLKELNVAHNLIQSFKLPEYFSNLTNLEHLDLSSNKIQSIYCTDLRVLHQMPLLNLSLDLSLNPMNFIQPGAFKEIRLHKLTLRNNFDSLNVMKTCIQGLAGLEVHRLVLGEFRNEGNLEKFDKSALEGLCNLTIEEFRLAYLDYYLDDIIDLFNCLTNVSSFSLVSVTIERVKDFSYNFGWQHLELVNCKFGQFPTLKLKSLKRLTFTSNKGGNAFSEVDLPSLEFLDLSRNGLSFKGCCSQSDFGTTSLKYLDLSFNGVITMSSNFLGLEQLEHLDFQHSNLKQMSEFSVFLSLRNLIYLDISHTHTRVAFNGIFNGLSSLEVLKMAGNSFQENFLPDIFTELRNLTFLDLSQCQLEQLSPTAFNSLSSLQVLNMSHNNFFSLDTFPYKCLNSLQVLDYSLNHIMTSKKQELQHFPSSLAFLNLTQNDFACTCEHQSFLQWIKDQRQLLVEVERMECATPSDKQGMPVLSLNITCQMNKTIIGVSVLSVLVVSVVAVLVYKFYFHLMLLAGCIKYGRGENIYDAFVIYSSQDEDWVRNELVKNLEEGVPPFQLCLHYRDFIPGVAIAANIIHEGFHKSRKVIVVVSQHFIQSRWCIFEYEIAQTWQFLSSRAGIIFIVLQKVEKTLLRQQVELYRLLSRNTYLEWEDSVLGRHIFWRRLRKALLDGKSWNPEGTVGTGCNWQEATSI

SMILES	EC50 (Toll-like receptor 4 [1]) [µM]	Intrinsic activity (Toll-like receptor 4 [2])	further results
CCC[C@]1(c2cc(OC)cc(OC)c2)O[C@H]2c3c(c4ccccc4[nH]c3=O)OC(C)(C)[C@H]2O1	3.1	0.7	–
CCC[C@]1(c2ccc(OC)c(OC)c2)O[C@H]2c3c(c4ccccc4[nH]c3=O)OC(C)(C)[C@H]2O1	15.8	0.2	–
COc1cc([C@@H]2[C@@H](C)[C@H]3[C@@H]2c2c(c4ccccc4[nH]c2=O)OC3(C)C)ccc1O	> 10	–	–
COc1ccc([C@H]2[C@H]3c4c(c5ccccc5[nH]c4=O)OC(C)(C)[C@H]3[C@@H]2C2CC2)cc1OCCCO	0.79	0.88	–
CCOc1ccc([C@H]2[C@H]3c4c(c5ccccc5[nH]c4=O)OC(C)(C)[C@H]3[C@@H]2C(C)C)cc1OC	3.9	0.19	–
COc1ccc([C@H]2[C@H]3c4c(c5ccccc5[nH]c4=O)OC(C)(C)[C@H]3[C@@H]2C(C)C)cc1OC(=O)CCC(=O)O	6.3	0.29	–
COc1ccc([C@@H]2[C@@H](C(C)=O)[C@H]3[C@@H]2c2c(c4ccccc4[nH]c2=O)OC3(C)C)cc1OC	10	0.3	–
COc1ccc2[nH]c(=O)c3c(c2c1)OC(C)(C)[C@@H]1[C@H]3[C@H](c2ccc(OC)c(OC)c2)[C@H]1C(C)C	> 10	–	–
COc1cc([C@@H]2[C@@H](C)[C@@H]3C(C)Oc4c(c(=O)[nH]c5ccccc45)[C@H]23)cc(OC)c1OC (single isomer, unassigned)	> 10	–	–
COc1cc([C@H]2[C@H]3c4c(c5ccccc5n(C)c4=O)OC(C)(C)[C@H]3[C@@H]2C2CC2)cc(OC)c1OC	0.79	0.81	–
COc1cc([C@H]2[C@H]3c4c(c5ccccc5n(C)c4=O)OC(C)(C)[C@H]3[C@@H]2C2CCCC2)cc(OC)c1OC	2.5	0.69	–
CC[C@@H]1[C@@H](c2ccc(OC)c(OC)c2)[C@H]2c3c(c4ccccc4n(C)c3=O)OC(C)(C)[C@@H]12	2	0.61	–
COc1ccc([C@H]2[C@H]3c4c(c5ccccc5[nH]c4=O)OC(C)(C)[C@H]3[C@@H]2C2CC2)cc1OC	0.63	0.75	–
COC(=O)[C@@H]1C(c2cc(OC)c(OC)c(OC)c2)[C@H]2c3c(c4ccccc4[nH]c3=O)OC(C)(C)C12 (single isomer, unassigned)	–	–	Activity (Toll-like receptor 4 [3]): inactive
COc1ccc2[nH]c(=O)c3c(c2c1)OC(C)(C)[C@H]1[C@H](C)[C@@H](c2cc(OC)c(OC)c(OC)c2)[C@@H]31	> 10	–	–
COc1ccc([C@@H]2[C@@H](C)[C@H]3[C@@H]2c2c(c4ccccc4[nH]c2=O)OC3(C)C)c(OC)c1OC	> 10	–	–
CC[C@@H]1[C@@H](c2ccc(OC)c(F)c2)[C@H]2c3c(c4ccccc4n(C)c3=O)OC(C)(C)[C@@H]12	3.1	0.36	–
CC[C@@H]1[C@@H](c2ccc(OC)c(OC)c2)[C@H]2c3c(c4cc(C)ccc4n(C)c3=O)OC(C)(C)[C@@H]12	3.1	0.29	–
COc1ccc([C@H]2[C@H]3c4c(c5ccccc5[nH]c4=O)OC(C)(C)[C@H]3[C@@H]2C(C)C)cc1CCl	2	0.2	–
CCOC(=O)[C@@H]1[C@@H](c2ccc(Br)cc2)[C@H]2c3c(c4ccccc4[nH]c3=O)OC(C)(C)[C@@H]12	–	–	Activity (Toll-like receptor 4 [4]): inactive
CCC[C@]1(c2cc(OC)c(OC)c(OC)c2)O[C@H]2c3c(c4ccccc4[nH]c3=O)OC(C)(C)[C@H]2O1	–	–	Activity (Toll-like receptor 4 [5]): inactive
CCCC[C@@H]1[C@@H](c2cc(OC)c(OC)c(OC)c2)[C@H]2c3c(c4ccccc4[nH]c3=O)OC(C)(C)[C@@H]12	2	0.69	–
COc1cc(OC)cc([C@@H]2[C@@H](C)[C@H]3[C@@H]2c2c(c4ccccc4[nH]c2=O)OC3(C)C)c1	3.1	0.46	–
CCCC[C@@H]1[C@@H](c2ccc(OC)c(OC)c2)[C@H]2c3c(c4ccccc4[nH]c3=O)OC(C)(C)[C@@H]12	1.2	1.01	–
COc1ccc([C@@H]2[C@@H](C)[C@H]3[C@@H]2c2c(c4ccccc4[nH]c2=O)OC3(C)C)cc1Br	3.9	0.28	–

SMILES	EC50 (Toll-like receptor 4 [1]) [µM]	Intrinsic activity (Toll-like receptor 4 [2])	further results
COc1cc(C2[C@@H](COC(C)=O)C3[C@@H]2c2c(c4ccccc4[nH]c2=O)OC3(C)C)cc(OC)c1OC (single isomer, unassigned)	5	0.1	–
COc1ccc([C@@H]2[C@@H](C)[C@H]3[C@@H]2c2c(c4ccccc4[nH]c2=O)OC3(C)C)c(Cl)c1OC	3.1	0.44	–
COc1ccc([C@H]2[C@H]3c4c(c5ccccc5[nH]c4=O)OC(C)(C)[C@H]3[C@@H]2C2CC2)cc1OCCCN1CCOCC1	3.9	0.19	–
COc1ccc([C@@H]2[C@@H](C)[C@H]3[C@@H]2c2c(c4ccccc4[nH]c2=O)OC3(C)C)cc1	> 10	–	–
COc1cc([C@H]2[C@H]3c4c(c5cc(C)ccc5n(C)c4=O)OC(C)(C)[C@H]3[C@@H]2C(C)C)cc(OC)c1OC	7.9	0.41	–
COc1cc([C@H]2[C@H]3c4c(c5ccccc5[nH]c4=O)OC(C)(C)[C@H]3[C@@H]2C(C)C)cc(OC)c1OC	0.79	1.18	–
COc1ccc([C@H]2[C@H]3c4c(c5ccccc5[nH]c4=O)OC(C)(C)[C@H]3[C@@H]2C(C)C)cc1Cl	2	0.47	–
COc1cc([C@@H]2C[C@H]3[C@@H]2c2c(c4ccccc4[nH]c2=O)OC3(C)C)cc(OC)c1OC	–	–	Activity (Toll-like receptor 4 [6]): inactive
COc1cc([C@H]2[C@H]3c4c(c5ccccc5[nH]c4=O)OC(C)(C)[C@H]3[C@@H]2C2CCCC2)cc(OC)c1OC	0.63	0.63	–
COc1ccc([C@H]2[C@H]3c4c(c5ccccc5n(C)c4=O)OC(C)(C)[C@H]3[C@@H]2C(C)C)cc1OC(C)=O	3.1	0.31	–
COc1ccc([C@H]2[C@H]3c4c(c5ccccc5[nH]c4=O)OC(C)(C)[C@H]3[C@@H]2C(C)C)cc1OCCO	0.5	0.46	–
COc1ccc([C@H]2[C@H]3c4c(c5ccccc5[nH]c4=O)OC(C)(C)[C@H]3[C@@H]2C2CCCC2)cc1OC	0.39	0.9	–
COc1ccc([C@H]2[C@H]3c4c(c5ccccc5[nH]c4=O)OC(C)(C)[C@H]3[C@@H]2C(C)C)cc1OC	1	0.9	–
COc1ccc([C@H]2[C@H]3c4c(c5ccccc5n(C)c4=O)OC(C)(C)[C@H]3[C@@H]2C(C)C)cc1Cl	3.1	0.53	–
CC[C@@H]1[C@@H](c2cc(OC)c(OC)c(OC)c2)[C@H]2c3c(c4cc(C)ccc4n(C)c3=O)OC(C)(C)[C@@H]12	3.1	0.3	–
COc1cc([C@H]2[C@H]3c4c(c5ccccc5[nH]c4=O)OC(C)(C)[C@H]3[C@@H]2C2CC2)cc(OC)c1OC	0.63	0.82	–
COc1ccc([C@H]2[C@H]3c4c(c5ccccc5[nH]c4=O)OC(C)(C)[C@H]3[C@@H]2C(C)C)cc1OC(C)=O	> 10	–	–
C[C@@H]1[C@@H](c2ccccc2)[C@H]2c3c(c4ccccc4[nH]c3=O)OC(C)(C)[C@@H]12	–	–	Activity (Toll-like receptor 4 [7]): inactive
COc1ccc([C@@H]2[C@@H](C)[C@H]3[C@@H]2c2c(c4ccccc4n(C)c2=O)OC3(C)C)cc1OC	2.5	0.64	–
CC[C@@H]1[C@@H](c2cc(OC)c(OC)c(OC)c2)[C@H]2c3c(c4ccccc4[nH]c3=O)OC(C)(C)[C@@H]12	0.79	1.05	–
CC[C@@H]1[C@@H](c2ccc(OC)c(OC)c2)[C@H]2c3c(c4ccccc4[nH]c3=O)OC(C)(C)[C@@H]12	1.2	1.01	–
COc1cc([C@@H]2[C@@H](C)[C@H]3[C@@H]2c2c(c4ccccc4[nH]c2=O)OC3(C)C)ccc1OCc1ccccc1	–	–	Activity (Toll-like receptor 4 [8]): inactive
COc1ccc([C@@H]2[C@@H](C(=O)C3CC3)[C@H]3[C@@H]2c2c(c4ccccc4[nH]c2=O)OC3(C)C)cc1OC	7.9	0.62	–
COc1cc(C2[C@@H](COC(C)C)C3[C@@H]2c2c(c4ccccc4[nH]c2=O)OC3(C)C)cc(OC)c1OC (single isomer, unassigned)	–	–	Activity (Toll-like receptor 4 [8]): inactive
COc1ccc([C@@H]2[C@@H](C)[C@H]3[C@@H]2c2c(c4ccccc4[nH]c2=O)OC3(C)C)cc1OC	3.1	0.69	–

— ChEMBL document CHEMBL3259572, “Euodenine A: a small-molecule agonist of human TLR4” (J Med Chem, 2014)
